From PubChem BioAssay (NCI)
Values after ≈ are worked out from the molar mass of the structure shown.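 Compound exposure: 48 hours, 5 concentrations, 96-well plates. At the GI50, growth is halved. TGI denotes the concentration required for complete inhibition of growth.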

Assays:
Assay in all cases: NCI-60 cell line screen, 48 h
CAKI-1 renal = tested on: CAKI-1 renal
CCRF-CEM leukemia = tested on: CCRF-CEM leukemia
HT29 colon = tested on: HT29 colon
K-562 leukemia = tested on: K-562 leukemia
MALME-3M melanoma = tested on: MALME-3M melanoma
NCI-H226 lung = tested on: NCI-H226 lung
OVCAR-5 ovarian = tested on: OVCAR-5 ovarian
SF-268 CNS = tested on: SF-268 CNS
SN12C renal = tested on: SN12C renal
SNB-19 CNS = tested on: SNB-19 CNS
UACC-257 melanoma = tested on: UACC-257 melanoma
MDA-MB-231 breast = tested on: MDA-MB-231 breast

SMILES	TGI (CAKI-1 renal)	TGI (CCRF-CEM leukemia)	TGI (HT29 colon)	TGI (K-562 leukemia)	TGI (MALME-3M melanoma)	TGI (NCI-H226 lung)	TGI (OVCAR-5 ovarian)	TGI (SF-268 CNS)	TGI (SN12C renal)	TGI (SNB-19 CNS)	TGI (UACC-257 melanoma)	GI50 (CAKI-1 renal)	GI50 (CCRF-CEM leukemia)	GI50 (HT29 colon)	GI50 (K-562 leukemia)	GI50 (NCI-H226 lung)	GI50 (OVCAR-5 ovarian)	GI50 (UACC-257 melanoma)	TGI (MDA-MB-231 breast)
COC(=O)CC(=O)OC1C[C@@H]2CCC3C(C)(C)CCC[C@]3(C)C23CC[C@@]1(C)C3 (stereo partly drawn)	30.5 µM	> 100 µM	35.1 µM	> 100 µM	32.7 µM	46.7 µM	29.6 µM	35.9 µM	31.3 µM	31.6 µM	35.3 µM	–	–	–	–	–	–	–	–
COc1cccc(NC(=O)/C(CS(=O)(=O)CCC(C(C)=O)C(C)=O)=N\NC(C)(C)C)c1	> 100 µM	> 100 µM	> 100 µM	> 100 µM	> 100 µM	> 100 µM	> 100 µM	> 100 µM	> 100 µM	> 100 µM	> 100 µM	–	–	–	–	–	–	–	–
CCCC(O)c1ccc2[nH]c3c(C)cc([N+](=O)[O-])c(C)c3c2c1 (stereo not drawn)	> 100 µM	> 100 µM	> 100 µM	> 100 µM	> 100 µM	> 100 µM	> 100 µM	> 100 µM	> 100 µM	> 100 µM	> 100 µM	–	–	–	–	–	–	–	–
Cc1c2ccncc2c(C)c2c1[nH]c1ccc(O)cc12	0.0686 mg/L	0.31 mg/L	1.23 mg/L	0.675 mg/L	–	1.08 mg/L	0.831 mg/L	–	0.0638 mg/L	–	1.12 mg/L	0.0137 mg/L (≈ 0.0522 µM)	0.0158 mg/L (≈ 0.06 µM)	0.185 mg/L (≈ 0.704 µM)	0.0182 mg/L (≈ 0.0695 µM)	0.137 mg/L (≈ 0.522 µM)	0.239 mg/L (≈ 0.909 µM)	0.267 mg/L (≈ 1.02 µM)	–
C/C(=C\COP(=O)(O)OP(=O)(O)O)CC/C=C(\C)CNc1c(F)c(F)c(F)c(F)c1F	> 100 µM	1.26 µM	> 100 µM	> 100 µM	> 100 µM	> 100 µM	> 100 µM	> 100 µM	> 100 µM	> 100 µM	> 100 µM	–	–	–	–	–	–	–	> 100 µM
COC1=CC(=O)C2(C=C1OC)OC[C@H]1Oc3c(ccc4c3C=CC(C)(C)O4)C(=O)[C@H]12 (stereo partly drawn)	–	> 100 µM	> 100 µM	> 100 µM	> 100 µM	–	> 100 µM	–	–	> 100 µM	> 100 µM	–	–	–	–	–	–	–	–
O=C1CCNC/C1=C\c1ccccc1	> 100 µM	–	32.9 µM	> 100 µM	–	60.8 µM	81.3 µM	45 µM	> 100 µM	46.4 µM	58.8 µM	–	–	–	–	–	–	–	–
CCOc1c2c(cc3c1C(=O)c1c(OC)cccc1C3=O)C=C(OC)CC2	> 25 µM	> 25 µM	> 25 µM	> 25 µM	> 25 µM	> 25 µM	> 25 µM	> 25 µM	> 25 µM	> 25 µM	> 25 µM	–	–	–	–	–	–	–	> 25 µM
Cc1ccc2c(c1)CC1(Cc3cc(C)ccc3C1=O)C2=O	> 100 µM	> 100 µM	> 100 µM	> 100 µM	> 100 µM	–	> 100 µM	> 100 µM	–	> 100 µM	> 100 µM	–	–	–	–	–	–	–	> 100 µM
Cc1ccccc1NC(=O)C(=O)C(C(=O)c1ccccc1F)C1OC(=O)c2ccccc21 (stereo not drawn)	50 µM	62.4 µM	> 100 µM	> 100 µM	95.1 µM	14.3 µM	> 100 µM	62.5 µM	71.2 µM	94.8 µM	> 100 µM	–	–	–	–	–	–	–	–
O=S(c1ccc(O)cc1)c1ccc(O)cc1	> 100 µM	> 100 µM	> 100 µM	> 100 µM	> 100 µM	> 100 µM	> 100 µM	> 100 µM	–	> 100 µM	> 100 µM	–	–	–	–	–	–	–	–
C1CCC(CC2CCC(NC3=NCCO3)CC2)CC1 (stereo not drawn)	50.7 µM	61.9 µM	17.1 µM	32.9 µM	29.7 µM	34.3 µM	53.6 µM	62.1 µM	42.5 µM	34.3 µM	30.1 µM	–	–	–	–	–	–	–	37.5 µM
CCCOC(=O)CCC(NC(=O)c1ccc(Nc2nc3ccccc3nc2-c2cccs2)cc1)C(=O)OCCC (stereo not drawn)	> 100 µM	> 100 µM	–	> 100 µM	88.9 µM	> 100 µM	> 100 µM	> 100 µM	> 100 µM	> 100 µM	–	–	–	–	–	–	–	–	–
COc1ccc(N2C(=O)[C@@H]3[C@@H]4CC(C)CC[C@@H]4c4c([nH]c5ccccc45)[C@@H]3C2=O)cc1 (stereo partly drawn)	> 72.9 µM	> 100 µM	> 100 µM	> 100 µM	> 100 µM	28.5 µM	> 100 µM	37.9 µM	32.5 µM	29.6 µM	> 100 µM	–	–	–	–	–	–	–	–
CC(=O)OC1CCC2(C)C(CCC3C2CCC2(C)C(c4ccc(=O)oc4)C(OC(C)=O)CC32O)C1 (stereo not drawn)	0.0194 µM	0.0556 µM	0.527 µM	0.141 µM	0.017 µM	0.288 µM	0.173 µM	0.0341 µM	0.503 µM	0.33 µM	0.115 µM	–	–	–	–	–	–	–	–
CCOC(=O)CN(CC)C(=O)NC12CC3CC(CC(C3)C1)C2	483 µM	631 µM	425 µM	683 µM	378 µM	480 µM	545 µM	> 750 µM	> 750 µM	> 750 µM	433 µM	–	–	–	–	–	–	–	–

SMILES	TGI (CAKI-1 renal)	TGI (CCRF-CEM leukemia)	TGI (HT29 colon)	TGI (K-562 leukemia)	TGI (MALME-3M melanoma)	TGI (NCI-H226 lung)	TGI (OVCAR-5 ovarian)	TGI (SF-268 CNS)	TGI (SN12C renal)	TGI (SNB-19 CNS)	TGI (UACC-257 melanoma)	GI50 (CAKI-1 renal)	GI50 (CCRF-CEM leukemia)	GI50 (HT29 colon)	GI50 (K-562 leukemia)	GI50 (NCI-H226 lung)	GI50 (OVCAR-5 ovarian)	GI50 (UACC-257 melanoma)	TGI (MDA-MB-231 breast)
O=C1OCOC2(CCCC2)C1c1ccccc1 (stereo not drawn)	> 100 µM	> 100 µM	> 100 µM	> 100 µM	> 100 µM	> 100 µM	> 100 µM	> 100 µM	> 100 µM	> 100 µM	> 100 µM	–	–	–	–	–	–	–	> 100 µM
CCn1c(=O)c2nc(SC)sc2n(-c2ccccc2)c1=S	–	> 100 µM	> 100 µM	55.1 µM	> 100 µM	> 100 µM	> 100 µM	> 100 µM	> 100 µM	> 100 µM	> 100 µM	–	–	–	–	–	–	–	> 100 µM
O=[N+]([O-])c1ccc(N=P(c2ccccc2)(c2ccccc2)c2ccccc2)n2nnnc12	> 100 µM	> 100 µM	> 100 µM	> 100 µM	> 100 µM	–	> 100 µM	> 100 µM	> 100 µM	> 100 µM	> 100 µM	–	–	–	–	–	–	–	–
O=C(CC(C(=O)c1ccsc1)c1cccs1)c1cccs1 (stereo not drawn)	–	> 100 µM	> 100 µM	> 100 µM	> 100 µM	> 100 µM	> 100 µM	> 100 µM	> 100 µM	> 100 µM	> 100 µM	–	–	–	–	–	–	–	–
COC(OC)c1cccc2c1C(=O)CCC1(CC2)OCCCCO1	> 100 µM	> 100 µM	> 100 µM	> 100 µM	> 100 µM	> 100 µM	> 100 µM	> 100 µM	> 100 µM	> 100 µM	> 100 µM	–	–	–	–	–	–	–	–
CC(NC(CC12CC3CC(CC(C3)C1)C2)C(N)=O)c1ccccc1 (stereo not drawn)	61.2 µM	41.9 µM	48.1 µM	41.4 µM	34.3 µM	–	42.5 µM	61.2 µM	–	> 100 µM	41.8 µM	–	–	–	–	–	–	–	> 100 µM
Cc1ccc(-c2ccc3c(c2)Sc2ccccc2O3)n1C	> 73.1 µM	3.95 µM	–	> 100 µM	50 µM	> 100 µM	> 52.9 µM	> 33.9 µM	7.88 µM	> 100 µM	> 100 µM	–	–	–	–	–	–	–	> 100 µM
O=C1C=C2SC3C[C@@]24CC1(O)[N+]1=c2c4c(c(O)c4c2=C(C=N4)CC1)N3	4 µM	2.03 µM	1.01 µM	2.72 µM	–	3.44 µM	3.8 µM	2.19 µM	2 µM	3.12 µM	2.42 µM	–	–	–	–	–	–	–	–
COC1=CC(=O)[C@@]2(C)C(C)[C@H](c3ccccc3)[C@H]2C1=O (stereo partly drawn)	> 100 µM	> 100 µM	> 100 µM	> 100 µM	> 100 µM	> 100 µM	> 100 µM	> 100 µM	–	> 100 µM	> 100 µM	–	–	–	–	–	–	–	–
O=C1OCc2nc3c(c(-c4ccccc4C(F)(F)F)c21)C(=O)OC3	–	> 100 µM	–	> 100 µM	> 100 µM	–	> 100 µM	> 100 µM	> 100 µM	> 100 µM	> 100 µM	–	–	–	–	–	–	–	–
CCC(C)C(NC(=O)c1cccc2c(=O)c3ccccc3[nH]c12)C(=O)O (stereo not drawn)	–	> 100 µM	> 100 µM	> 100 µM	> 100 µM	> 100 µM	> 100 µM	> 100 µM	> 100 µM	> 100 µM	–	–	–	–	–	–	–	–	> 100 µM
Cc1cc2c3ccccc3n3c2c2c1OC1(C)CCC(C2C1)C3(C)C (stereo not drawn)	–	> 25 µM	> 25 µM	> 25 µM	> 25 µM	> 25 µM	> 25 µM	> 25 µM	> 25 µM	> 25 µM	–	–	–	–	–	–	–	–	–
O=C1c2cccc3cc([N+](=O)[O-])cc(c23)C(=O)N1c1ccc(OCCN2CCCC2)cc1	> 100 µM	73.5 µM	28.3 µM	–	30.9 µM	24.2 µM	51.7 µM	> 100 µM	> 100 µM	80.2 µM	36.1 µM	–	–	–	–	–	–	–	> 100 µM
CCN(CC)C(=O)Cc1[nH][nH]c(=O)c1C(=O)N(CC)CC	–	> 100 µM	> 100 µM	> 100 µM	> 100 µM	> 100 µM	–	> 100 µM	> 100 µM	> 100 µM	> 100 µM	–	–	–	–	–	–	–	–
COc1ccc(C(CC(=O)c2cccs2)C(=O)c2ccc3c(c2)OCO3)cc1 (stereo not drawn)	> 100 µM	> 100 µM	–	> 100 µM	> 100 µM	–	–	> 100 µM	> 100 µM	–	> 100 µM	–	–	–	–	–	–	–	> 100 µM
